How the values were obtained:
Assay type in all cases: in vivo
giant foxtail [1] = test: Test Example 3: herbicidal effects in soil treatment
In short: (§1)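 Seeds were sown in sterilized diluvial soil and covered with about 1.5 cm of soil. Compounds, formulated as emulsifiable concentrates and diluted with water, were sprayed evenly over the soil surface at set doses in g/a. Herbicidal effect was scored on a rating scale three weeks later.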

common chickweed [2] = test: as above
In short: as §1

large crabgrass [3] = test: as above
In short: as §1

common ragweed [4] = test: as above
In short: as §1

barnyardgrass [5] = test: as above
In short: as §1

common lambsquater [6] = test: as above
In short: as §1

Italian ryegrass [7] = test: as above
In short: as §1

redroot pigweed [8] = test: as above
In short: as §1

posumbu knotweed [9] = test: as above
In short: as §1

velvetleaf [10] = test: as above
In short: as §1

wild oat [11] = test: as above
In short: as §1

water foxtail [12] = test: as above
In short: as §1

ducksalad [13] = test: Test Example 2: herbicidal effects during the vegetation period under submerged conditions; conditions: treatment during the vegetation period under submerged conditions; dose 2.52 g/a
In short: (§2)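 Barnyardgrass, bulrush and ducksalad were co-sown in alluvial soil flooded to 4 cm and grown in a greenhouse at 25 to 30° C. At the 1- or 2-leaf stage, water-diluted emulsifiable concentrates went onto the water surface at set doses (g/a). Herbicidal effect was scored three weeks later on a graded scale.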

barnyardgrass [14] = test: as above; conditions: treatment during the vegetation period under submerged conditions; dose 2.52 g/a
In short: as §2

bulrush [15] = test: as above; conditions: treatment during the vegetation period under submerged conditions; dose 2.52 g/a
In short: as §2

transplanted rice = test: Test Example 1: preemergence treatment under submerged conditions, effect on crop; conditions: dose 2.52 g/a
In short: (§3)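 Submerged conditions, 4 cm water over alluvial soil. Weeds sown and 2.5-leaf rice transplanted; compound applied preemergence to water surface, doses in g per are. Greenhouse, 25 to 30° C., three weeks, then 0–5 mortality rating.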

giant foxtail [16] = test: Test Example 4: herbicidal effect in foliage treatment
In short: (§4)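 Weeds and crops sown in sterilized diluvial soil under ~1.5 cm cover and grown in greenhouse at 25 to 30° C. At 14 days, water-diluted emulsifiable concentrate sprayed onto foliage at set doses (g/a); herbicidal effect scored on a rating scale three weeks after application.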

common chickweed [17] = test: as above
In short: as §4

large crabgrass [18] = test: as above
In short: as §4

common ragweed [19] = test: as above
In short: as §4

beadstraw = test: as above
In short: as §4

barnyardgrass [20] = test: as above
In short: as §4

common lambsquater [21] = test: as above
In short: as §4

Italian ryegrass [22] = test: as above
In short: as §4

redroot pigweed [23] = test: as above
In short: as §4

posumbu knotweed [24] = test: as above
In short: as §4

velvetleaf [25] = test: as above
In short: as §4

wild oat [26] = test: as above
In short: as §4

water foxtail [27] = test: as above
In short: as §4

ducksalad [28] = test: Test Example 1: herbicidal effects in preemergence treatment under submerged conditions; conditions: dose 2.52 g/a
In short: as §3

barnyardgrass [29] = test: as above; conditions: dose 2.52 g/a
In short: as §3

bulrush [30] = test: as above; conditions: dose 2.52 g/a
In short: as §3

[31] = dose 3.2 g/a, three weeks after the application
[32] = dose 6.3 g/a, three weeks after application

With `O=C1CCCON1Cc1ccccc1N(C(=O)OCCCl)S(=O)(=O)C(F)(F)F` [III-14] the “herbicidal effect, E: giant foxtail” value (giant foxtail [1]; dose 3.2 g/a) was 5 (mortality of 90% or above (nearly complete death)), the “herbicidal effect, N: common chickweed” value (common chickweed [2]; dose 3.2 g/a) was 5 (mortality of 90% or above (nearly complete death)) and the “herbicidal effect, D: large crabgrass” value (large crabgrass [3]; dose 3.2 g/a) was 5 (mortality of 90% or above (nearly complete death)). The “herbicidal effect, J: common ragweed” value (common ragweed [4]; dose 3.2 g/a) was 5 (mortality of 90% or above (nearly complete death)), the “herbicidal effect, A: barnyardgrass” value (barnyardgrass [5]; dose 3.2 g/a) was 5 (mortality of 90% or above (nearly complete death)) and the “herbicidal effect, L: common lambsquater” value (common lambsquater [6]; dose 3.2 g/a) was 0 (mortality of less than 5% (almost ineffective)). For the same compound, the “herbicidal effect, H: Italian ryegrass” value (Italian ryegrass [7]; dose 3.2 g/a) was 3 (mortality of at least 40% and less than 70%), the “herbicidal effect, K: redroot pigweed” value (redroot pigweed [8]; dose 3.2 g/a) was 1 (mortality of at least 5% and less than 20%) and the “herbicidal effect, M: posumbu knotweed” value (posumbu knotweed [9]; dose 3.2 g/a) was 3 (mortality of at least 40% and less than 70%). For the same compound, the “herbicidal effect, I: velvetleaf” value (velvetleaf [10]; dose 3.2 g/a) was 5 (mortality of 90% or above (nearly complete death)), the “herbicidal effect, F: wild oat” value (wild oat [11]; dose 3.2 g/a) was 0 (mortality of less than 5% (almost ineffective)) and the “herbicidal effect, G: water foxtail” value (water foxtail [12]; dose 3.2 g/a) was 5 (mortality of 90% or above (nearly complete death)). For the same compound, the “C: ducksalad, herbicidal effect (evaluation scale 0-5)” value (“C: ducksalad, herbicidal effect” for short) (ducksalad [13]) was 5 (mortality of 90% or above (nearly complete death)), the “A: barnyardgrass, herbicidal effect (evaluation scale 0-5)” value (barnyardgrass [14]) was 5 (mortality of 90% or above (nearly complete death)) and the “B: bulrush, herbicidal effect (evaluation scale 0-5)” value (from here on “B: bulrush, herbicidal effect”) (bulrush [15]) was 5 (mortality of 90% or above (nearly complete death)). For the same compound, the “a: transplanted rice, effect on crop (evaluation scale 0-5)” value (transplanted rice) was 3 (mortality of at least 40% and less than 70%), the “E: giant foxtail, herbicidal effect” value (giant foxtail [16]; [31]) was 5 (mortality of 90% or above (nearly complete death)) and the “N: common chickweed, herbicidal effect” value (common chickweed [17]; [31]) was 4 (mortality of at least 70% and less than 90%). The “D: large crabgrass, herbicidal effect” value (large crabgrass [18]; [31]) was 5 (mortality of 90% or above (nearly complete death)), the “J: common ragweed, herbicidal effect” value (common ragweed [19]; [31]) was 4 (mortality of at least 70% and less than 90%) and the “O: beadstraw, herbicidal effect” value (beadstraw; [31]) was 5 (mortality of 90% or above (nearly complete death)). The “A: barnyardgrass, herbicidal effect” value (barnyardgrass [20]; [31]) was 5 (mortality of 90% or above (nearly complete death)), the “L: common lambsquater, herbicidal effect” value (common lambsquater [21]; [31]) was 0 (mortality of less than 5% (almost ineffective)) and the “H: Italian ryegrass, herbicidal effect” value (Italian ryegrass [22]; [31]) was 4 (mortality of at least 70% and less than 90%). The “K: redroot pigweed, herbicidal effect” value (redroot pigweed [23]; [31]) was 3 (mortality of at least 40% and less than 70%), the “M: posumbu knotweed, herbicidal effect” value (posumbu knotweed [24]; [31]) was 0 (mortality of less than 5% (almost ineffective)) and the “I: velvetleaf, herbicidal effect” value (velvetleaf [25]; [31]) was 5 (mortality of 90% or above (nearly complete death)). The “F: wild oat, herbicidal effect” value (wild oat [26]; [31]) was 0 (mortality of less than 5% (almost ineffective)), the “G: water foxtail, herbicidal effect” value (water foxtail [27]; [31]) was 5 (mortality of 90% or above (nearly complete death)) and the “C: ducksalad, herbicidal effect” value (ducksalad [28]) was 5 (mortality of 90% or above (nearly complete death)). For the same compound, the “A: barnyardgrass, herbicidal effect (evaluation scale 0-5)” value (barnyardgrass [29]) was 5 (mortality of 90% or above (nearly complete death)) and the “B: bulrush, herbicidal effect” value (bulrush [30]) was 5 (mortality of 90% or above (nearly complete death)).

`CC(C)COC(=O)N(c1ccccc1CN1CCOCC1=O)S(=O)(=O)C(F)(F)F` [Compound I-3] was tested, and the “E: giant foxtail, herbicidal effect (evaluation scale 0-5)” value (giant foxtail [1]; dose 6.3 g/a) was 5 (mortality of 90% or above (nearly complete death)), the “N: common chickweed, herbicidal effect (evaluation scale 0-5)” value (common chickweed [2]; dose 6.3 g/a) was 5 (mortality of 90% or above (nearly complete death)) and the “D: large crabgrass, herbicidal effect (evaluation scale 0-5)” value (large crabgrass [3]; dose 6.3 g/a) was 5 (mortality of 90% or above (nearly complete death)). For the same compound, the “J: common ragweed, herbicidal effect (evaluation scale 0-5)” value (common ragweed [4]; dose 6.3 g/a) was 4 (mortality of at least 70% and less than 90%), the “A: barnyardgrass, herbicidal effect (evaluation scale 0-5)” value (barnyardgrass [5]; dose 6.3 g/a) was 5 (mortality of 90% or above (nearly complete death)) and the “L: common lambsquater, herbicidal effect (evaluation scale 0-5)” value (common lambsquater [6]; dose 6.3 g/a) was 5 (mortality of 90% or above (nearly complete death)). The “H: Italian ryegrass, herbicidal effect (evaluation scale 0-5)” value (Italian ryegrass [7]; dose 6.3 g/a) was 5 (mortality of 90% or above (nearly complete death)), the “K: redroot pigweed, herbicidal effect (evaluation scale 0-5)” value (redroot pigweed [8]; dose 6.3 g/a) was 3 (mortality of at least 40% and less than 70%) and the “M: posumbu knotweed, herbicidal effect (evaluation scale 0-5)” value (posumbu knotweed [9]; dose 6.3 g/a) was 3 (mortality of at least 40% and less than 70%). For the same compound, the “I: velvetleaf, herbicidal effect (evaluation scale 0-5)” value (velvetleaf [10]; dose 6.3 g/a) was 5 (mortality of 90% or above (nearly complete death)), the “F: wild oat, herbicidal effect (evaluation scale 0-5)” value (wild oat [11]; dose 6.3 g/a) was 0 (mortality of less than 5% (almost ineffective)) and the “G: water foxtail, herbicidal effect (evaluation scale 0-5)” value (water foxtail [12]; dose 6.3 g/a) was 5 (mortality of 90% or above (nearly complete death)). For the same compound, the “C: ducksalad, herbicidal effect” value (ducksalad [13]) was 5 (mortality of 90% or above (nearly complete death)), the “A: barnyardgrass, herbicidal effect (evaluation scale 0-5)” value (barnyardgrass [14]) was 5 (mortality of 90% or above (nearly complete death)) and the “B: bulrush, herbicidal effect” value (bulrush [15]) was 5 (mortality of 90% or above (nearly complete death)). The “a: transplanted rice, effect on crop (evaluation scale 0-5)” value (transplanted rice) was 0 (mortality of less than 5% (almost ineffective)), the “E: giant foxtail, herbicidal effect” value (giant foxtail [16]; [32]) was 4 (mortality of at least 70% and less than 90%) and the “N: common chickweed, herbicidal effect” value (common chickweed [17]; [32]) was 4 (mortality of at least 70% and less than 90%). The “D: large crabgrass, herbicidal effect” value (large crabgrass [18]; [32]) was 5 (mortality of 90% or above (nearly complete death)), the “J: common ragweed, herbicidal effect” value (common ragweed [19]; [32]) was 4 (mortality of at least 70% and less than 90%) and the “O: beadstraw, herbicidal effect” value (beadstraw; [32]) was 4 (mortality of at least 70% and less than 90%). The “A: barnyardgrass, herbicidal effect” value (barnyardgrass [20]; [32]) was 5 (mortality of 90% or above (nearly complete death)), the “L: common lambsquater, herbicidal effect” value (common lambsquater [21]; [32]) was 4 (mortality of at least 70% and less than 90%) and the “H: Italian ryegrass, herbicidal effect” value (Italian ryegrass [22]; [32]) was 3 (mortality of at least 40% and less than 70%). For the same compound, the “K: redroot pigweed, herbicidal effect” value (redroot pigweed [23]; [32]) was 2 (mortality of at least 20% and less than 40%), the “M: posumbu knotweed, herbicidal effect” value (posumbu knotweed [24]; [32]) was 0 (mortality of less than 5% (almost ineffective)) and the “I: velvetleaf, herbicidal effect” value (velvetleaf [25]; [32]) was 5 (mortality of 90% or above (nearly complete death)). For the same compound, the “F: wild oat, herbicidal effect” value (wild oat [26]; [32]) was 0 (mortality of less than 5% (almost ineffective)), the “G: water foxtail, herbicidal effect” value (water foxtail [27]; [32]) was 5 (mortality of 90% or above (nearly complete death)) and the “C: ducksalad, herbicidal effect” value (ducksalad [28]) was 5 (mortality of 90% or above (nearly complete death)). The “A: barnyardgrass, herbicidal effect (evaluation scale 0-5)” value (barnyardgrass [29]) was 5 (mortality of 90% or above (nearly complete death)) and the “B: bulrush, herbicidal effect” value (bulrush [30]) was 5 (mortality of 90% or above (nearly complete death)).

From patent US20120029187A1, “HALOALKYLSULFONANILIDE DERIVATIVE” (Nissan Chemical Industries, Ltd., priority 2009, published 2012)
